Measured values taken from patent US6800629B2, “Pyrazine derivatives or salts thereof, pharmaceutical composition containing the same, and production intermediates thereof” (priority 2000, dated 2004).

What was measured:
Type in all cases: cell-based
Rotavirus (Ku strain) = test: Anti-rotavirus activity, plaque inhibition in MA-104 cells; settings: 30 μg/mL of test compound, plaque count
[1] = test system: influenza virus (A/PR/8/34 strain); test: Anti-influenza virus activity, plaque inhibition in MDCK cells; settings: PR/8, MDCK; for inhibition at 100 µg/mL / inhibition at 10 µg/mL: 72 h, read-out: Inhibitory rate
RS virus (A-2 strain) = test: Anti-RS virus (respiratory syncytial virus) activity, plaque inhibition in HEp-2 cells; settings: 30 μg/mL of test compound, plaque count

Structure (SMILES) | inhibition at 100 µg/mL [1] [%] | further results
NC(=O)c1nccn([C@@H]2O[C@H](COC(=O)c3ccccc3)[C@@H](OC(=O)c3ccccc3)[C@H]2OC(=O)c2ccccc2)c1=O [Example I-1, [(2R,3R,4R,5R)-5-[3-(aminocarbonyl)-2-oxo-1(2H)-pyrazinyl]-3,4-bis(benzoyloxy)tetrahydro-2-furanyl]methyl benzoate] | – | anti-rotavirus activity (Rotavirus (Ku strain)): shows an anti-rotavirus activity
NC(=O)c1nccn([C@@H]2O[C@H](COP(=O)(O)O)[C@@H](O)[C@H]2O)c1=O [Example I-12, {(2R,3S,4R,5R)-5-[3-(aminocarbonyl)-2-oxo-1(2H)-pyrazinyl]-3,4-dihydroxytetrahydro-2-furanyl}methyl dihydrogen phosphate] | 28 | –
CC(=O)OC[C@H]1O[C@@H](n2ccnc(C(=N)N)c2=O)[C@H](OC(C)=O)[C@@H]1OC(C)=O [Example I-14, (2R,3R,4R,5R)-4-(acetyloxy)-2-[(acetyloxy)methyl]-5-[3-[amino(imino)methyl]-2-oxo-1(2H)-pyrazinyl]tetrahydro-3-furanyl acetate] | – | anti-RS virus activity (RS virus (A-2 strain)): shows an anti-RS virus activity
NC(=O)c1nccn(C2C[C@H](O)[C@@H](CO)O2)c1=O (stereo partly drawn) [Example I-4, 4-[(4S,5R)-4-hydroxy-5-(hydroxymethyl)tetrahydro-2-furanyl]-3-oxo-3,4-dihydro-2-pyrazinecarboxamide] | 80 | –
NC(=O)c1nccn(C2C=CC(CO)C2)c1=O (stereo not drawn) [Example I-8, 4-[4-(hydroxymethyl)-2-cyclopenten-1-yl]-3-oxo-3,4-dihydro-2-pyrazinecarboxamide] | 42 | –
NC(=O)c1nccn([C@@H]2O[C@H](CO)[C@@H](O)[C@H]2O)c1=O [Example I-2, 4-[(2R,3R,4S,5R)-3,4-dihydroxy-5-(hydroxymethyl)tetrahydro-2-furanyl]-3-oxo-3,4-dihydro-2-pyrazinecarboxamide] | – | inhibition at 10 µg/mL [1]: 95%
NC(=O)c1nccn([C@@H]2CO[C@H](CO)[C@@H](O)[C@H]2O)c1=O [Example I-10, 4-[(3R,4S,5S,6R)-4,5-dihydroxy-6-(hydroxymethyl)tetrahydro-2H-pyran-3-yl]-3-oxo-3,4-dihydro-2-pyrazinecarboxamide] | 26 | –
NC(=O)c1nc(Cl)cn([C@@H]2O[C@H](CO)[C@@H](O)[C@H]2O)c1=O [Example I-7, 6-chloro-4-[(2R,3R,4S,5R)-3,4-dihydroxy-5-(hydroxymethyl)tetrahydro-2-furanyl]-3-oxo-3,4-dihydro-2-pyrazinecarboxamide] | 42 | –
NC(=O)c1nc(F)cn([C@@H]2O[C@H](CO)[C@@H](O)[C@H]2O)c1=O [Example I-6, 4-[(2R,3R,4S,5R)-3,4-dihydroxy-5-(hydroxymethyl)tetrahydro-2-furanyl]-6-fluoro-3-oxo-3,4-dihydro-2-pyrazinecarboxamide] | – | inhibition at 10 µg/mL [1]: 47%
NC(=O)c1nccn([C@@H]2O[C@H](COP(=O)(OCc3ccccc3)OCc3ccccc3)[C@@H](O)[C@H]2O)c1=O [Example I-13, {(2R,3S,4R,5R)-5-[3-(aminocarbonyl)-2-oxo-1(2H)-pyrazinyl]-3,4-dihydroxytetrahydro-2-furanyl}methyl dibenzyl phosphate] | 39 | –
NC(=O)c1nc(F)cnc1O [6-fluoro-3-hydroxy-2-pyrazinecarboxamide] | – | inhibition at 1 µg/mL ([1]; read-out: plaque inhibitory rate): 100%
NC(=O)c1nccn([C@@H]2CO[C@H](CO)[C@@H](O)C2)c1=O [Example I-9, 4-[(3S,5S,6R)-5-hydroxy-6-(hydroxymethyl)tetrahydro-2H-pyran-3-yl]-3-oxo-3,4-dihydro-2-pyrazinecarboxamide] | 31 | –
